What was measured:
SW872 cells [1] = assay: Adipogenesis gene expression in SW872 cells (qRT-PCR array); format: cell-based, human; conditions: 10 nM, 24 hours
Method: SW872 cells are subcultured in T75 flasks for 24 hours. Cells are then treated for 24 hours with serum free basal media as a control or doxercalciferol at 1 nM, 10 nM, or 100 nM diluted in basal media (serum-free). After the incubation period, cells are imaged and analyzed for morphology and cell count. Cells are then collected for analysis of adipogenesis-related gene expression and cell culture media are collected for analysis of obesity related cytokines. RNA is extracted from SW872 cells treated with doxercalciferol. RNA extraction is done using TRIzol (Invitrogen, USA) according to the manufacturer's instructions. The concentration and purity of the extracted RNA is checked using a NanoDrop spectrometer (Thermo Scientific, MA, USA). Quantitative real-time PCR (qPCR) of adipogenesis related genes in SW872 cells is performed using a RT^2 Profiler™ PCR Array Human Apidogenesis according to the manufacturer's instructions (Qiagen, Sciences Inc., MD, USA).

[2] = test system: letrozole induced polycystic ovary syndrome (PCOS) mouse models; assay: Glucose tolerance test in PCOS mice; format: in vivo, C57BL/6 mice; conditions: 300 ng/kg i.p. 3 times per week, 120 minutes after IP glucose injection
Method: At 3.5 weeks of age, mice (n=11/group) are subcutaneously implanted with a placebo or 5 mg letrozole (LTZ) pellet (Innovative Research of America, Sarasota, FL, USA), which provides a constant release of LTZ (50 μg/day). Body weight is monitored weekly before and post-implantation. Body weight and insulin resistance (measured by glucose tolerance test, GTT) are used to monitor development of PCOS characteristics.
Five weeks after placebo or LTZ pellet implantation, mice undergo intraperitoneal injection of doxercalciferol (300 ng/kg) or saline 3 times per week for 6 weeks. Six weeks after doxercalciferol treatment, the mice are anesthetized and ovary, uterus, gonadal white fat, kidney, and liver tissue are collected. Each of these tissues are fixed in 4% paraformaldehyde for further histological analysis.
Glucose tolerance testing is performed on healthy, PCOS, and treated mice 3 weeks after doxercalciferol treatment. Mice are fasting for 16 h (5 p.m. to 9 a.m.), with free access to drinking water, after which they receive an intra-peritoneal (i.p.) injection of D-glucose (2.0 g/kg body weight). Blood glucose level is measured at 0, 15, 30, 60, 90, and 120 minutes following glucose injection using a Bayer glucose monitor (Roche Diagnostics Corp, IN, USA).

SW872 cells [3] = assay: Obesity related cytokine antibody array of SW872 secretomes; format: cell-based, human; conditions: SW872 secretome, 10 nM, 24 hours
Method: SW872 cells are subcultured in T75 flasks for 24 hours. Cells are then treated for 24 hours with serum free basal media as a control or doxercalciferol at 1 nM, 10 nM, or 100 nM diluted in basal media (serum-free). After the incubation period, cells are imaged and analyzed for morphology and cell count. Cells are then collected for analysis of adipogenesis-related gene expression and cell culture media are collected for analysis of obesity related cytokines. Cell culture media are collected from SW872 cells after 24 hours of 10 nM doxercalciferol treatment. The media is analyzed for obesity related cytokines using a membrane-based antibody array (Ray Biotech, GA, USA) per the manufacturer's protocol, and then quantified using a multimode microplate reader system, Varioskan LUX Multimode Microplate Reader (Thermo Fisher).

H295R cells = assay: H295R theca-like cells, cell morphology and cell number after 24 h treatment; format: cell-based, human; conditions: 100 nM
Method: Human adrenocortical-carcinoma cells (H295R cells) are used as an in vitro cell culture model of ovarian theca cells to assess androgen production. H295R cells are purchased from ATCC (Manassas, VA, USA, cat. no. ATCC® CRL-2128™) and cultured per the recommended guidelines. These cells are isolated from a donor. Briefly, H295R cells are cultured in flasks pre-coated with extracellular matrix (Gibco, USA, cat. no. S-006-100) with DMEM/F12 (Gibco, cat. no. 21041025) and 2.5% Nu-Serum (Corning, USA). The cells are subcultured at a ratio of 1:4, resulting in a cell density of approximately 3×10^6 in T75 flasks.
H295R cells are subcultured in T75 flasks for 24 hours. Cells are then treated for 24 hours with serum free basal media as a control or doxercalciferol at 1 nM, 10 nM, or 100 nM diluted in basal media (serum-free) at a 1:1 ratio. After the incubation period, cells are imaged and analyzed for morphology and cell count. Cells are then collected for analysis of steroidogenesis-related gene expression. Cell culture media are collected and used for testosterone quantification using ELISA based Testosterone Parameter Assay Kit (R&D system) per the manufacturer's protocol. The testosterone level is quantified using a multimode microplate reader system, Varioskan LUX Multimode Microplate Reader (Thermo Fisher).

[4] = Body weight in letrozole induced PCOS mouse model; format: in vivo, C57BL/6 mice; conditions: 300 ng/kg i.p. 3 times per week for 6 weeks
Method: 2.5-week-old female C57BL/6 mice (Charles River, MA, USA) are housed in a vivarium for 1 week under specific pathogen-free conditions. The animal experiment protocol for this study is approved, and all animal experiments are performed in compliance with policies and guidelines for use of laboratory animals. At 3.5 weeks of age, mice (n=11/group) are subcutaneously implanted with a placebo or 5 mg letrozole (LTZ) pellet (Innovative Research of America, Sarasota, FL, USA), which provides a constant release of LTZ (50 μg/day). Body weight is monitored weekly before and post-implantation. Body weight and insulin resistance (measured by glucose tolerance test, GTT) are used to monitor development of PCOS characteristics. Five weeks after placebo or LTZ pellet implantation, mice undergo intraperitoneal injection of doxercalciferol (300 ng/kg) or saline 3 times per week for 6 weeks. Six weeks after doxercalciferol treatment, the mice are anesthetized and ovary, uterus, gonadal white fat, kidney, and liver tissue are collected. Each of these tissues are fixed in 4% paraformaldehyde for further histological analysis.

For `C=C1/C(=C\C=C2/CCC[C@]3(C)[C@@H]([C@H](C)/C=C/[C@H](C)C(C)C)CC[C@@H]23)C[C@@H](O)C[C@@H]1O` [doxercalciferol], the “CEBP relative gene expression” value (SW872 cells [1]) was “significantly upregulated”, the “CEBPD relative gene expression” value (SW872 cells [1]) was “significantly upregulated” and the “PRDM16 relative gene expression” value (SW872 cells [1]) was “significantly downregulated”. The “RXRA relative gene expression” value (SW872 cells [1]) was “significantly upregulated”, the “SREBF1 relative gene expression” value (SW872 cells [1]) was “significantly downregulated” and the “WNT1 relative gene expression” value (SW872 cells [1]) was “significantly downregulated”. The “WNT10B relative gene expression” value (SW872 cells [1]) was “significantly downregulated”, the “expression of most adipogenesis genes” value (SW872 cells [1]; not significant for most genes) was “downregulated” and the “blood glucose levels, vs control mice” value [2] was “elevated levels compared to control mice”. The “blood glucose levels, vs untreated PCOS mice” value [2] was “significantly lower blood glucose levels”, the CCL5 cytokine production (SW872 cells [3]) was “significantly downregulates” and the CCL18 cytokine production (SW872 cells [3]) was “significantly downregulates”. For the same molecule, the CXCL10 cytokine production (SW872 cells [3]) was “significantly downregulates”, the MIF cytokine production (SW872 cells [3]) was “significantly downregulates” and the TIMP-2 cytokine production (SW872 cells [3]) was “significantly downregulates”. The “TNF RII cytokine production” value (SW872 cells [3]) was “significantly downregulates”, the “TNF alpha cytokine production” value (SW872 cells [3]) was “significantly downregulates” and the cell morphology (H295R cells) was “most of the cells in the 100 nM doxercalciferol treatment group are dead”. For the same molecule, the cell number (H295R cells; vs other groups) was “significantly fewer cells”, the “mouse body weight after treatment, vs control mice” value [4] was “no significant weight difference” and the “mouse body weight after treatment, vs untreated PCOS mice” value [4] was “PCOS mice weigh significantly more than both control and doxercalciferol treated PCOS mice”. For the same molecule, the “mouse body weight during treatment” value ([4]; PCOS mice) was “lowers PCOS mouse weight”.

From patent US20240293337A1, “USE OF DOXERCALCIFEROL TO TREAT AND/OR PREVENT UTERINE FIBROIDS OR POLYCYSTIC OVARY SYNDROME” (priority 2023, published 2024)
